Patent publication US9617240B2 (TEIJIN PHARMA LIMITED, priority 2013, dated 2017)

target: T1, oxidase type xanthine oxidase (derived from buttermilk) (Bos taurus, UniProt P80457); experiment: Xanthine oxidase inhibitory activity (absorbance change at 290 nm); assay type: biochemical; conditions: xanthine substrate, 100 mM phosphate buffer, absorbance at 290 nm for 5 minutes; read-out: Inhibitory Activity (50% inhibitory concentration with respect to oxidase type xanthine oxidase)
T1 construct: oxidase type xanthine oxidase (derived from buttermilk, supplied by Calbiochem Novabiochem Corp.); purchased Calbiochem Novabiochem Corp; host or cells: buttermilk (natural source)
T1 sequence (P80457 whole entry): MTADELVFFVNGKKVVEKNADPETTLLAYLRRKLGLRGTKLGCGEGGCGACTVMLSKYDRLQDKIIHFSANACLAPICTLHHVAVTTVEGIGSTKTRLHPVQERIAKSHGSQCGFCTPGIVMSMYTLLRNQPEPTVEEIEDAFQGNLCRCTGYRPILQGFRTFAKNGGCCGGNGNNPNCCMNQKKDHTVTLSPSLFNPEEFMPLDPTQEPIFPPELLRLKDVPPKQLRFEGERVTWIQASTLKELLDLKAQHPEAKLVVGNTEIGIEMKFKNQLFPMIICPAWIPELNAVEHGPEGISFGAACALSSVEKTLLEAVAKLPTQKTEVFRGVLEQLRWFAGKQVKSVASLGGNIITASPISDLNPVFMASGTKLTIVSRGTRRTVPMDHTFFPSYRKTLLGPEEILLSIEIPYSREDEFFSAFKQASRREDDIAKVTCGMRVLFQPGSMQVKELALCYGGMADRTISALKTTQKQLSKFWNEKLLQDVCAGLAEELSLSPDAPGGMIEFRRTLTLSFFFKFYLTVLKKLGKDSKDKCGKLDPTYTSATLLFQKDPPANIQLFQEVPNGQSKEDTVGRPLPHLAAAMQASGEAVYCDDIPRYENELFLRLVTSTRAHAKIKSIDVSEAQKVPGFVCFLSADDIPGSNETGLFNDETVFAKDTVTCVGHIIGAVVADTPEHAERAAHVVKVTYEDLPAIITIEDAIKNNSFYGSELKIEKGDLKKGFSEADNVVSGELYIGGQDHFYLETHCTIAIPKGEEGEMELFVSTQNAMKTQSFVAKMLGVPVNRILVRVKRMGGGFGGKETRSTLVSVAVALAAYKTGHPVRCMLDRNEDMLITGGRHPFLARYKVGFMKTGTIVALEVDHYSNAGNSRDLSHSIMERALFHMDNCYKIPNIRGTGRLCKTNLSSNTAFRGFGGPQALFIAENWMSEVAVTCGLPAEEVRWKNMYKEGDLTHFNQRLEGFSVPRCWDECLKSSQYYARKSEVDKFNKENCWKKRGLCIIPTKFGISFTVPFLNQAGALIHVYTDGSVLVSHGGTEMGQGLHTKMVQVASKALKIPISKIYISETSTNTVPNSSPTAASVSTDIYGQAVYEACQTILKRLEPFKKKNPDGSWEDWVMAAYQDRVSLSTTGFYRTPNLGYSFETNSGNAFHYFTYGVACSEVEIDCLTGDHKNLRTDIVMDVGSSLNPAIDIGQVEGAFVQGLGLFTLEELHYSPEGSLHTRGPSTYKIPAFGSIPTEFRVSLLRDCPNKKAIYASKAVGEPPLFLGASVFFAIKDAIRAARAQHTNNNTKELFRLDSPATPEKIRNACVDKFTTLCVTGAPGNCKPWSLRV
Experimental: The xanthine oxidase inhibitory activity was measured for the compounds synthesized according to the above Examples.
After a test compound was dissolved in DMSO (manufactured by Sigma Co.) so that the concentration is 20 mM, the test compound was prepared and used at a desired concentration at the time of use.
The evaluation of the xanthine oxidase inhibitory activity of the compounds of the present invention was conducted by partially modifying the method described in the literature (Method Enzymatic Analysis, 1, 521-522, 1974). The present evaluation is based on the oxidase type xanthine oxidase inhibitory activity evaluation. That is, a xanthine (manufactured by Sigma Co.) solution prepared at 10 mM in advance using a 20 mM sodium hydroxide solution was adjusted to 30 μM using a 100 mM phosphate buffer solution, and 75 μL/well of each solution was added into a 96-well plate. Aliquots (1.5 μL/well) of each test sample, which was diluted with DMSO so that the concentration is 100 times the final concentration, were added into a 96-well plate, and after mixing, the absorbance at 290 nm was measured by a microplate reader SPECTRA MAX Plus 384 (manufactured by Molecular Devices, LLC). Subsequently, oxidase type xanthine oxidase (derived from buttermilk, supplied by Calbiochem Novabiochem Corp.) was prepared at 30.6 mU/mL using a 100 mM phosphate buffer solution and 73.5 μL/well of each solution was added. Immediately after mixing, the change in absorbance at 290 nm was measured for 5 minutes. The enzyme activity when DMSO was used instead of a test compound solution was defined as 100%, the inhibitory rate of the test compounds was calculated and the 50% inhibitory concentration with respect to oxidase type xanthine oxidase was calculated by fitting to the dose-response curve.
Note that the symbols (+, ++, +++) in the table represent inhibitory activity values as shown below.

Row | IC50 [nM] | Structure (SMILES)
1 | 1 to 5 | N#Cc1cc(-n2cc(C(=O)O)cn2)ncc1-c1cccc(Cl)c1F [Compound 41, 1-[4-cyano-5-(3-chloro-2-fluorophenyl)pyridin-2-yl]-1H-pyrazole-4-carboxylic acid]
2 | 1 to 5 | N#Cc1cc(-n2cc(C(=O)O)cn2)ncc1-c1ccc(C(=O)O)cc1 [Compound 42, 1-[5-(4-carboxyphenyl)-4-cyanopyridin-2-yl]-1H-pyrazole-4-carboxylic acid]
3 | 1 to 5 | N#Cc1cc(-n2cc(C(=O)O)cn2)ncc1-c1ccc(C(F)(F)F)cc1 [Compound 43, 1-{4-cyano-5-[4-(trifluoromethyl)phenyl]pyridin-2-yl}-1H-pyrazole-4-carboxylic acid]
4 | 1 to 5 | N#Cc1cc(-n2cc(C(=O)O)cn2)ncc1-c1ccc(OC(F)(F)F)cc1 [Compound 44, 1-{4-cyano-5-[4-(trifluoromethoxy)phenyl]pyridin-2-yl}-1H-pyrazole-4-carboxylic acid]
5 | 5 to 10 | N#Cc1cc(-n2cc(C(=O)O)cn2)ncc1-c1cccc(C(F)(F)F)c1 [Compound 45, 1-{4-cyano-5-[3-(trifluoromethyl)phenyl]pyridin-2-yl}-1H-pyrazole-4-carboxylic acid]
6 | 5 to 10 | N#Cc1cc(-n2cc(C(=O)O)cn2)ncc1-c1cccc(OC(F)F)c1 [Compound 46, 1-{4-cyano-5-[3-(difluoromethoxy)phenyl]pyridin-2-yl}-1H-pyrazole-4-carboxylic acid]
7 | 1 to 5 | CC(C)c1ccc(-c2cnc(-n3cc(C(=O)O)cn3)cc2C#N)cc1 [Compound 47, 1-[4-cyano-5-[4-(propane-2-yl)phenyl]pyridin-2-yl}-1H-pyrazole-4-carboxylic acid]
8 | 1 to 5 | CC(C)c1cccc(-c2cnc(-n3cc(C(=O)O)cn3)cc2C#N)c1 [Compound 48, 1-{4-cyano-5-[3-(propane-2-yl)phenyl]pyridine-2-yl}-1H-pyrazole-4-carboxylic acid]
9 | ≥ 10 | Cc1cc(F)ccc1-c1cnc(-n2cc(C(=O)O)cn2)cc1C#N [Compound 49, 1-[4-cyano-5-(4-fluoro-2-methylphenyl)pyridin-2-yl]-1H-pyrazole-4-carboxylic acid]
10 | 1 to 5 | COc1cc(F)ccc1-c1cnc(-n2cc(C(=O)O)cn2)cc1C#N [Compound 50, 1-[4-cyano-5-(4-fluoro-2-methoxyphenyl)pyridin-2-yl]-1H-pyrazole-4-carboxylic acid]
11 | 1 to 5 | Cc1cc(-c2cnc(-n3cc(C(=O)O)cn3)cc2C#N)ccc1Cl [Compound 51, 1-[4-cyano-5-(4-chloro-3-methylphenyl)pyridin-2-yl]-1H-pyrazole-4-carboxylic acid]
12 | 1 to 5 | CC(C)Oc1ccc(-c2cnc(-n3cc(C(=O)O)cn3)cc2C#N)cc1 [Compound 52]
13 | 1 to 5 | CC(C)(C)c1ccc(-c2cnc(-n3cc(C(=O)O)cn3)cc2C#N)cc1 [Compound 53, 1-[5-(4-tert-butylphenyl)-4-cyanopyridin-2-yl]-1H-pyrazole-4-carboxylic acid]
14 | 1 to 5 | N#Cc1cc(-n2cc(C(=O)O)cn2)ncc1-c1ccc(Oc2ccccc2)cc1 [Compound 54, 1-[4-cyano-5-(4-phenoxyphenyl)pyridin-2-yl]-1H-pyrazole-4-carboxylic acid]
15 | 1 to 5 | COCc1ccc(-c2cnc(-n3cc(C(=O)O)cn3)cc2C#N)cc1 [Compound 55, 1-{4-cyano-5-[4-(methoxymethyl)phenyl]pyridin-2-yl}-1H-pyrazole-4-carboxylic acid]
16 | 5 to 10 | CC(C)COc1cccc(-c2cnc(-n3cc(C(=O)O)cn3)cc2C#N)c1 [Compound 56]
17 | 1 to 5 | N#Cc1cc(-n2cc(C(=O)O)cn2)ncc1-c1ccc2ccccc2c1 [Compound 57, 1-[4-cyano-5-(naphthalen-2-yl)pyridin-2-yl]-1H-pyrazole-4-carboxylic acid]
18 | ≥ 10 | COc1ccncc1-c1cnc(-n2cc(C(=O)O)cn2)cc1C#N [Compound 58, 1-[4-cyano-5-(4-methoxypyridin-3-yl)pyridin-2-yl]-1H-pyrazole-4-carboxylic acid]
19 | 1 to 5 | CN(C)c1ccc(-c2cnc(-n3cc(C(=O)O)cn3)cc2C#N)cn1 [Compound 59, 1-{4-cyano-5-[6-(dimethylamino)pyridin-3-yl]pyridin-2-yl}-1H-pyrazole-4-carboxylic acid]
20 | ≥ 10 | N#Cc1cc(-n2cc(C(=O)O)cn2)ncc1-c1cncc(F)c1 [Compound 60, 1-[4-cyano-5-(5-fluoropyridin-3-yl)pyridin-2-yl]-1H-pyrazole-4-carboxylic acid]

Row | IC50 [nM] | Structure (SMILES)
21 | 1 to 5 | N#Cc1cc(-n2cc(C(=O)O)cn2)ncc1-c1csc2ccccc12 [Compound 61, 1-[5-(1-benzothiophen-3-yl)-4-cyanopyridin-2-yl]-1H-pyrazole-4-carboxylic acid]
22 | ≥ 10 | N#Cc1cc(-n2cc(C(=O)O)cn2)ncc1-c1ccncc1 [Compound 62, 1-[4-cyano-5-(pyridin-4-yl)pyridin-2-yl]-1H-pyrazole-4-carboxylic acid]
23 | 1 to 5 | CSc1ccc(-c2cnc(-n3cc(C(=O)O)cn3)cc2C#N)cc1 [Compound 63, 1-{4-cyano-5-[4-(methylsulfanyl)phenyl]pyridin-2-yl}-1H-pyrazole-4-carboxylic acid]
24 | 1 to 5 | N#Cc1cc(-n2cc(C(=O)O)cn2)ncc1-c1ccc(N2CCOCC2)cc1 [Compound 64, 1-{4-cyano-5-[4-(morpholine-4-yl)phenyl]pyridine-2-yl}-1H-pyrazole-4-carboxylic acid]
25 | 1 to 5 | N#Cc1cc(-n2cc(C(=O)O)cn2)ncc1-c1ccc(-c2ccccc2)cc1 [Compound 65, 1-[4-cyano-5-(4-phenylphenyl)pyridine-2-yl]-1H-pyrazole-4-carboxyic acid]
26 | 1 to 5 | N#Cc1cc(-n2cc(C(=O)O)cn2)ncc1-c1ccc(OCc2ccccc2)cc1 [Compound 66, 1-{5-[4-(benzyloxy)phenyl]-4-cyanopyridine-2-yl}-1H-pyrazole-4-carboxylic acid]
27 | 5 to 10 | CN(C)c1cccc(-c2cnc(-n3cc(C(=O)O)cn3)cc2C#N)c1 [Compound 67, 1-{4-cyano-5-[3-(dimethylamino)phenyl]pyridine-2-yl}-1H-pyrazole-4-carboxylic acid]
28 | 1 to 5 | N#Cc1cc(-n2cc(C(=O)O)cn2)ncc1-c1ccc(N)cc1 [Compound 68, 1-[5-(4-aminophenyl)-4-cyanopyridine-2-yl]-1H-pyrazole-4-carboxylic acid]
29 | 1 to 5 | CS(=O)(=O)Nc1ccc(-c2cnc(-n3cc(C(=O)O)cn3)cc2C#N)cc1 [Compound 69, 1-[4-cyano-5-(4-methanesulfonamidophenyl)pyridine-2-yl]-1H-pyrazole-4-carboxylic acid]
30 | 1 to 5 | N#Cc1cc(-n2cc(C(=O)O)cn2)ncc1-c1ccc(C(=O)N2CCOCC2)cc1 [Compound 70, 1-(4-cyano-5-{4-[(morpholine-4-yl)carbonyl]phenyl}pyridine-2-yl)-1H-pyrazole-4-carboxylic acid]
31 | ≥ 10 | N#Cc1cc(-n2cc(C(=O)O)cn2)ncc1-c1cccc([N+](=O)[O-])c1 [Compound 72, 1-[4-cyano-5-(3-nitrophenyl)pyridin-2-yl]-1H-pyrazole-4-carboxylic acid]
32 | 1 to 5 | N#Cc1cc(-n2cc(C(=O)O)cn2)ncc1-c1ccc(C(=O)c2ccccc2)cc1 [Compound 73, 1-[5-(4-benzoylphenyl)-4-cyanopyridin-2-yl]-1H-pyrazole-4-carboxylic acid]
33 | ≥ 10 | N#Cc1cc(-n2cc(C(=O)O)cn2)cnc1-c1ccccc1 [Compound 75, 1-(5-cyano-6-phenylpyridin-3-yl)-1H-pyrazole-4-carboxylic acid]
34 | ≥ 10 | N#Cc1cc(-n2cc(C(=O)O)cn2)cnc1-c1ccccc1F [Compound 76, 1-[5-cyano-6-(2-fluorophenyl)pyridin-3-yl]-1H-pyrazole-4-carboxylic acid]
35 | ≥ 10 | N#Cc1cc(-n2cc(C(=O)O)cn2)cnc1-c1ccc(F)cc1F [Compound 77, 1-[5-cyano-6-(2,4-difluorophenyl)pyridin-3-yl]-1H-pyrazole-4-carboxylic acid]
36 | ≥ 10 | Cc1ccc(F)c(-c2ncc(-n3cc(C(=O)O)cn3)cc2C#N)c1 [Compound 79, 1-[5-cyano-6-(2-fluoro-5-methylphenyl)pyridin-3-yl]-1H-pyrazole-4-carboxylic acid]
37 | ≥ 10 | N#Cc1cc(-n2cc(C(=O)O)cn2)cnc1-c1cc(F)ccc1F [Compound 80, 1-[5-cyano-6-(2,5-difluorophenyl)pyridin-3-yl]-1H-pyrazole-4-carboxylic acid]
38 | ≥ 10 | N#Cc1cc(-n2cc(C(=O)O)cn2)cnc1-c1cccc(F)c1F [Compound 81, 1-[5-cyano-6-(2,3-difluorophenyl)pyridin-3-yl]-1H-pyrazole-4-carboxylic acid]
39 | ≥ 10 | Cc1cc(-c2ncc(-n3cc(C(=O)O)cn3)cc2C#N)ccc1F [Compound 82, 1-[5-cyano-6-(4-fluoro-3-methylphenyl)pyridin-3-yl]-1H-pyrazole-4-carboxyic acid]
